We go through 7 molecules from article PMC6332318, “Synthetic Development of New 3-(4-Arylmethylamino)butyl-5-arylidene-rhodanines under Microwave Irradiation and Their Effects on Tumor Cell Lines and against Protein Kinases” (Molecules, 2015).

As a reminder, the melting point is the temperature of the solid-liquid transition. For orientation: IC50 means the concentration that gives 50% inhibition.

Data set [1] concerns HCT 116 cells (actively proliferating colorectal adenocarcinoma). Kind of data set: in vitro inhibition of cell proliferation / survival assay. It counts as cell-based. Particulars: Homo sapiens; for viability at 25 µM: measured at 25 μM after 48 h, single dose, triplicate. On the procedure:
(§1) As an initial effort to investigate their in vitro bioactivity, the new synthesized 3-(4-arylmethylamino)butyl-2-thioxo-1,3-thiazolidine-4-one 9a–n and also their precursors 6a–f were evaluated for their in vitro inhibition of cell proliferation. For this study, we used a panel of seven representative tumoral cell lines, namely HuH7 D12 (differential hepato cellular carcinoma), Caco 2 (differentiating colorectal adenocarcinoma), MDA-MBD231 ([…]), HCT 116 (actively proliferating colorectal adenocarcinoma), PC3 (prostate carcinoma), NCI-H727 (lung carcinoma), HaCat keratinocyte and, diploid skin fibroblasts as normal cell lines for control.
(§2) Skin diploid fibroblastic cells were provided by BIOPREDIC International Company (Rennes, France). Caco2 (Ref ECACC: 86010202), Huh-7D12 (Ref ECACC: 01042712), MDA-MB-231 (Ref ECACC: 92020424), HCT-116 (Ref ECACC: 91091005), PC3 (Ref ECACC: 90112714), NCI-H727 (Ref ECACC: 94060303) cell lines were obtained from the ECACC collection and HaCaT (from Cell Lines Service, Eppelheim, Germany). Cells were grown according to ECACC recommendations. The toxicity test of the compounds on these cells was as follows: 2 × 10^3 cells for HCT-116 cells or 4 × 10^3 for the other cells were seeded in 96 multiwell plates in triplicate and left for 24 h for attachment, spreading and growing. Then, cells were exposed for 48 h to increasing concentrations of the compounds, ranging from 0.1 to 25 μM in a final volume of 120 μL of culture medium. Cells were fixed in cooled solution of 90% ethanol/5% acetic acid, nuclei were stained with Hoechst 3342 (Sigma) and counted using automated imaging analysis (Cellomics Arrayscan VTI/HCS Reader, Thermo/Scientific, Waltham, MA, USA). The IC50 were graphically determined.

For another data set, the system named is HaCat keratinocyte. Described as above. To be noted: Homo sapiens; for viability at 25 µM: measured at 25 μM after 48 h, single dose, triplicate. It counts as cell-based. On the procedure: as §1, §2
Data set [2] has as its system Huh7 D12 cells (differential hepato cellular carcinoma). The data set is described as above. To be noted: for viability at 25 µM: Huh-7D12, measured at 25 μM after 48 h, single dose, triplicate. The format is cell-based. On the procedure:
as §1, §2

The subject of data set [3] is PC3 cells (prostate carcinoma). The description is as above. It counts as cell-based. To be noted: Homo sapiens; for viability at 25 µM: PC-3, measured at 25 μM after 48 h, single dose, triplicate. On the procedure: as §1, §2
The subject of data set [4] is Caco 2 cells (differentiating colorectal adenocarcinoma). The data set is described as above. The format is cell-based. Particulars: Homo sapiens; for viability at 25 µM: measured at 25 μM after 48 h, single dose, triplicate. On the procedure: as §1, §2
Data set [5] relates to NCI-H727 cells (lung carcinoma). The data set is described as above. The format is cell-based. To be noted: Homo sapiens, NCI-H727; for viability at 25 µM: measured at 25 μM after 48 h, single dose, triplicate, read-out: % of Survival. On the procedure: as §1, §2
A further data set deals with MDA-MB231 cells. The data set is described as above. To be noted: Homo sapiens; for viability at 25 µM: MDA-MB-231, measured at 25 μM after 48 h, single dose, triplicate. The format is cell-based. On the procedure: as §1, §2
For the next data set, the system named is diploid skin fibroblasts. Kind of data set: in vitro inhibition of cell proliferation / survival assay, normal cells control. The format is cell-based. To be noted: Skin fibroblast, Fibroblasts; for viability at 25 µM: measured at 25 μM after 48 h, single dose, triplicate, read-out: % of Survival. On the procedure:
as §1, §2

The subject of data set [6] is panel of seven representative tumoral cell lines. Kind of data set: in vitro inhibition of cell proliferation, whole panel. It counts as cell-based. Particulars: all cell lines of the panel, without selectivity; read-out: IC50, moderate antitumor activities in all cell lines of the panel. On the procedure: as §1
as §2, with “The toxicity test of the compounds on these cells was as follows: 2 × 10^3 cells for HCT-116 cells or 4 × 10^3 for the other cells were seeded in 96 multiwell plates in triplicate and left for 24 h for attachment, spreading and growing. Then, cells were exposed for 48 h to increasing concentrations of the compounds, ranging from 0.1 to 25 μM in a final volume of 120 μL of culture medium.” left out

Where [7] appears, read: 48 h, average of three assays, standard error ± 0.5 μM.

As to `COc1ccc(CNCCCCN2C(=O)/C(=C/c3ccc4c(c3)OCO4)SC2=S)cc1` [Compound 9a, (5Z)3-[4-(4-Methoxyphenylmethylamino)butyl]-5-(1,3-benzodioxol-5-ylmethylene)-2-thioxo-1,3-thiazolidin-4-one], the melting point is 170 to 229 °C (dec.). The viability at 25 µM in [1] is 109%. In addition, the viability at 25 µM in the data set with HaCat keratinocyte was 103%. In addition, the viability at 25 µM in data set [2] amounted to 85%. For the same molecule, the viability at 25 µM in data set [3] was 92%. The viability at 25 µM in [4] stood at 109%. The viability at 25 µM in data set [5] stood at 104%. In addition, the viability at 25 µM in the data set on MDA-MB231 cells came out at 100%. For the same molecule, in the data set on diploid skin fibroblasts, the viability at 25 µM is 104%.

As to `COc1ccc(/C=C2\SC(=S)N(CCCCNCc3ccc(OC)cc3)C2=O)cc1` [Compound 9b, (5Z)3-[4-(4-Methoxyphenylmethylamino)butyl]-5-(4-methoxybenzylidene)-2-thioxo-1,3-thiazolidin-4-one], the melting point was in the range of 253 to 255 °C. For the same molecule, the viability at 25 µM in [1] came to 102%. For the same molecule, the viability at 25 µM with HaCat keratinocyte came to 104%. In addition, the viability at 25 µM in data set [2] came out at 105%. In data set [3], the viability at 25 µM amounted to 99%. For the same molecule, the viability at 25 µM in data set [4] was found to be 108%. Further, the viability at 25 µM in data set [5] is 90%. Also, the viability at 25 µM in the data set with MDA-MB231 cells was determined as 97%. The viability at 25 µM with diploid skin fibroblasts came to 167%.

Regarding `COc1ccc(CNCCCCN2C(=O)/C(=C/c3ccc4c(c3)OCCO4)SC2=S)cc1` [Compound 9c, (5Z)3-[4-(4-Methoxyphenylmethylamino)butyl]-5-(2,3-dihydro-1,4-benzodioxin-6-ylmethylene)-2-thioxo-1,3-thiazolidin-4-one], the melting point lay within 255 to 261 °C. The viability at 25 µM in [1] came to 97%. Further, the viability at 25 µM in the data set on HaCat keratinocyte came out at 101%. For the same molecule, the viability at 25 µM in data set [2] worked out at 88%. The viability at 25 µM in data set [3] worked out at 97%. Further, the viability at 25 µM in data set [4] was determined as 93%. The viability at 25 µM in data set [5] was 95%. Moreover, the viability at 25 µM in the data set on MDA-MB231 cells was 92%. For the same molecule, the viability at 25 µM in the data set on diploid skin fibroblasts turned out to be 102%.

For `COc1ccc(CNCCCCN2C(=O)/C(=C/c3ccc(O)c(OC)c3)SC2=S)cc1` [Compound 9d, (5Z)3-[4-(4-Methoxyphenylmethylamino)butyl]-5-(4-hydroxy-3-methoxybenzylidene)-2-thioxo-1,3-thiazolidin-4-one], the melting point fell in the range of 191 to 193 °C. Further, the IC50 in [6] is 10 to 17 µM. The IC50 in [1] (setting [7]) was determined as 10 µM. Further, in data set [1], the viability at 25 µM amounted to 1%. Also, half-maximal inhibition in the data set on HaCat keratinocyte (HaCaT, 48 h, average of three assays, standard error ± 0.5 μM) (IC50) required 10 µM. The viability at 25 µM in the data set with HaCat keratinocyte is 2%. This molecule showed an IC50 in data set [2] (Huh-7D12, 48 h, average of three assays, standard error ± 0.5 μM) of 10 µM. The viability at 25 µM in data set [2] stood at 7%. In data set [3] (PC-3, 48 h, average of three assays, standard error ± 0.5 μM), this molecule displayed an IC50 of 17 µM. For the same molecule, the viability at 25 µM in data set [3] came out at 41%. In data set [4] (setting [7]), the midpoint of inhibition, the IC50, lay at 15 µM. The viability at 25 µM in data set [4] worked out at 23%. The same molecule gave a half-inhibitory concentration (IC50) in data set [5] (setting [7]) of 10 µM. The viability at 25 µM in data set [5] came to 11%. Moreover, half-maximal inhibition with MDA-MB231 cells (MDA-MB-231, 48 h, average of three assays, standard error ± 0.5 μM) (IC50) was put at 11 µM. The viability at 25 µM with MDA-MB231 cells is 15%. In the data set on diploid skin fibroblasts (setting [7]), the IC50 is above 25 µM. In addition, in the data set with diploid skin fibroblasts, the viability at 25 µM was 29%.

In turn, `COc1cccc(CNCCCCN2C(=O)/C(=C/c3ccc4c(c3)OCCO4)SC2=S)c1` [Compound 9f, (5Z)3-[4-(3-Methoxyphenylmethylamino)butyl]-5-(2,3-dihydro-1,4-benzodioxin-6-ylmethylene)-2-thioxo-1,3-thiazolidin-4-one] showed a melting point of 247 to 251 °C. Also, the viability at 25 µM in data set [1] was determined as 113%. Moreover, the viability at 25 µM in the data set with HaCat keratinocyte came out at 100%. In [2], the viability at 25 µM was 102%. Besides, the viability at 25 µM in [3] turned out to be 98%. In data set [4], the viability at 25 µM came to 110%. Further, the viability at 25 µM in data set [5] came out at 96%. Also, in the data set with MDA-MB231 cells, the viability at 25 µM came out at 98%. Besides, the viability at 25 µM with diploid skin fibroblasts came to 134%.

`COc1cccc(/C=C2\SC(=S)N(CCCCNCc3cccc(OC)c3)C2=O)c1` [Compound 9g, (5Z)3-[4-(3-Methoxyphenylmethylamino)butyl]-5-(3-methoxybenzylidene)-2-thioxo-1,3-thiazolidin-4-one] had a melting point of 225 to 227 °C. Besides, in data set [1], the viability at 25 µM is 118%. The viability at 25 µM in the data set on HaCat keratinocyte was 110%. Also, the viability at 25 µM in data set [2] is 111%. The viability at 25 µM in data set [3] was found to be 98%. Further, the viability at 25 µM in [4] came to 117%. Moreover, the viability at 25 µM in data set [5] was determined as 95%. Moreover, in the data set with MDA-MB231 cells, the viability at 25 µM is 104%. Also, the viability at 25 µM in the data set on diploid skin fibroblasts amounted to 100%.

For the molecule `COc1cc(/C=C2\SC(=S)N(CCCCNCc3ccc4c(c3)OCO4)C2=O)ccc1O` [Compound 9k, (5Z)3-[4-(1,3-Benzodioxol-5-ylmethylamino)butyl]-5-(4-hydroxy-3-methoxybenzylidene)-2-thioxo-1,3-thiazolidin-4-one], the melting point lay within 200 to 203 °C. Further, the viability at 25 µM in data set [1] came to 98%. In addition, in the data set with HaCat keratinocyte, the viability at 25 µM is 80%. Besides, in data set [2], the viability at 25 µM came to 72%. Further, in [3], the viability at 25 µM is 83%. In data set [4], the viability at 25 µM came out at 98%. For the same molecule, in data set [5], the viability at 25 µM amounted to 96%. The viability at 25 µM in the data set with MDA-MB231 cells is 92%. Also, the viability at 25 µM in the data set on diploid skin fibroblasts worked out at 84%.
